Data reported in article PMC3530532, “Corticosteroid-Binding Globulin: Structure-Function Implications from Species Differences” (PLoS ONE, 2012).

How the values were obtained:
Cleaved human CBG-WT [1] = target: T1, Cleaved human CBG-WT (Homo sapiens, UniProt P08185, K148A); test: Isothermal titration calorimetry, steroid titrated to neutrophil elastase-cleaved human CBG-WT; type: binding; conditions: ITC, 25°C
T1 construct: residues 11 to 383 of human CBG (Swiss-Prot entry P08185); GST (N, cleaved yes); made in house; host or cells: E. coli BL21 Star (DE3)
T1 sequence (P08185 33-366 K148A): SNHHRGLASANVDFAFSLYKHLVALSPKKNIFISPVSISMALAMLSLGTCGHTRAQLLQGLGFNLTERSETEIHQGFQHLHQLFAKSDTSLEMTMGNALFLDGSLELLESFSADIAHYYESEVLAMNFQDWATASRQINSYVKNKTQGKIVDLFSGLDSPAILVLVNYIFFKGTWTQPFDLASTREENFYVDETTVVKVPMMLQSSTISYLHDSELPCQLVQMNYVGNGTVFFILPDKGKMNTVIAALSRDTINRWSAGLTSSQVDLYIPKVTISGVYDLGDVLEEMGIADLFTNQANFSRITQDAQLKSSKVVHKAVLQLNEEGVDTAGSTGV
T1 sequence (P08185 367-405): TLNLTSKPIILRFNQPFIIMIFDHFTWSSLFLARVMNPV
Procedure: (§1) Cleavage of the RCL in human and rat CBG mutants was accomplished with 100 mU human neutrophil elastase (Sigma-Aldrich) per mg purified CBG at 30°C and monitored by SDS-PAGE. The cleavage reaction was stopped with AEBSF. The protein samples were dialyzed against ITC buffer (20 mM potassium phosphate, 50 mM NaCl, pH 7.4) and titrated with steroids in a VP-ITC microcalorimeter (Microcal, Piscataway). All solutions were filtered (0.2 µm filter pore size) and degassed for 30 min prior to the titration experiments. The sample cell was filled with protein solution containing 15 µM rat CBG or 20 µM human CBG and titrated with steroid solutions containing 150 µM and 200 µM ligand, respectively. The titrations consisted of an initial injection of 2 µL followed by 25 consecutive injections of 10 µL ligand solution at 25°C. A spacing of 240 sec between the injections was used to allow a return to the baseline. Data points from the initial injection, which are generally affected by diffusion during the initial equilibration period after experiment setup, were discarded prior to data analysis. […] The binding curve was generated by plotting the heats of injections against the ratio of ligand to protein in the cell. Integrated heat data were analyzed using nonlinear regression fit with a one-site-binding model in the Origin-7™ software provided with the VP-ITC. Changes in the free energy and entropy can be calculated using the equation: ΔG° = −RTlnK = ΔH°−TΔS°. In this equation ΔG° is the change in Gibbs free energy, R the universal gas constant, T the temperature, and K the association constant. The change in enthalpy is denoted as ΔH°, and ΔS° is the change in entropy under standard conditions. The data shown in Table 2 were obtained from single titrations of each complex.

Cleaved human CBG-WT [2] = test: as above; type: binding; conditions: human CBG, uncleaved vs neutrophil elastase-cleaved, ITC 25°C
Procedure: as §1

C[C@]12CCC(=O)C=C1CC[C@@H]1[C@@H]2[C@@H](O)C[C@@]2(C)[C@H]1CC[C@]2(O)C(=O)CO [Hydrocortisone]
TΔS° (Cleaved human CBG-WT [1]; cleaved human CBG-WT): -18.7 kcal/mol | ΔG° (Cleaved human CBG-WT [1]; cleaved human CBG-WT): -8.68 kcal/mol | ΔH° (Cleaved human CBG-WT [1]; cleaved human CBG-WT): -27.41 kcal/mol | Kd (Cleaved human CBG-WT [1]; single titration, elastase-cleaved human CBG-WT): 0.442 ± 0.01 µM | reduction in binding affinity upon RCL cleavage (Cleaved human CBG-WT [2]): ten-fold
